From the NIST ThermoML archive (doi:10.1021/je800876t)
± gives the expanded uncertainty stated by the source.

Experiment: molar heat capacity at constant pressure
Conditions: 101.33 kPa, Crystal, Vacuum adiabatic calorimetry

O=C([O-])c1ccccc1.O=C([O-])c1ccccc1.[Ba+2] [barium benzoate]
Conditions	molar heat capacity at constant pressure [J/K/mol]
77.78 K	109.64 ± 0.68
79.5 K	111.79 ± 0.7
82.08 K	114.77 ± 0.71
84.57 K	117.57 ± 0.73
86.98 K	119.65 ± 0.74
89.39 K	121.92 ± 0.76
91.65 K	124.31 ± 0.78
93.86 K	126.6 ± 0.79
96.1 K	128.79 ± 0.81
98.25 K	130.89 ± 0.82
100.3 K	132.67 ± 0.83
102.4 K	134.86 ± 0.84
104.4 K	137.21 ± 0.86
106.5 K	139.25 ± 0.87
108.3 K	141.18 ± 0.88
110.3 K	142.99 ± 0.89
112.2 K	144.86 ± 0.9
114.1 K	146.37 ± 0.91
115.9 K	148.24 ± 0.92
117.8 K	150.2 ± 0.93
119.6 K	152.24 ± 0.95
122.4 K	154.37 ± 0.96
125.9 K	157.49 ± 0.98
128.8 K	160.12 ± 0.99
131.6 K	162.83 ± 1
134.5 K	165.78 ± 1
137.4 K	168.03 ± 1
140.3 K	170.89 ± 1.1
143.1 K	173.54 ± 1.1
146.1 K	176.75 ± 1.1
148.9 K	178.82 ± 1.1
152.8 K	182.27 ± 1.1
154.7 K	184.19 ± 1.1
157.6 K	186.99 ± 1.1
160.4 K	189.18 ± 1.2
163.4 K	191.95 ± 1.2
166.3 K	194.11 ± 1.2
169.1 K	197.21 ± 1.2
172 K	199.98 ± 1.2
174.9 K	202.6 ± 1.2
177.8 K	204.53 ± 1.3
180.6 K	207.13 ± 1.3
184.7 K	211.18 ± 1.3
188.6 K	214.68 ± 1.3
191.5 K	216.93 ± 1.3
194.4 K	219.24 ± 1.4
197.2 K	221.9 ± 1.4
200.2 K	224.02 ± 1.4
203.1 K	226.01 ± 1.4
206 K	228.46 ± 1.4
208.9 K	231.14 ± 1.4
211.8 K	233.77 ± 1.4
214.6 K	235.99 ± 1.4
217.5 K	238.64 ± 1.5
220.5 K	240.68 ± 1.5
223.4 K	243.49 ± 1.5
226.3 K	245.79 ± 1.5
229.1 K	248.3 ± 1.5
232 K	250.4 ± 1.5
235 K	253.03 ± 1.6
238 K	255.71 ± 1.6
242.6 K	259.3 ± 1.6
245.5 K	262.07 ± 1.6
248.3 K	264.47 ± 1.6
251.2 K	266.71 ± 1.6
254.2 K	269.22 ± 1.6
257 K	270.83 ± 1.7
259.8 K	272.78 ± 1.7
262.7 K	276.16 ± 1.7
265.6 K	277.74 ± 1.7
268.6 K	279.79 ± 1.7
271.6 K	282.06 ± 1.7
274.5 K	284.16 ± 1.7
277.5 K	286.12 ± 1.8
280.4 K	288.42 ± 1.8
283.3 K	290.79 ± 1.8
286.3 K	292.92 ± 1.8
289.2 K	295.05 ± 1.8
292 K	297.35 ± 1.8
294.9 K	299.58 ± 1.8
297.9 K	301.75 ± 1.8
300.8 K	303.71 ± 1.9
303.6 K	305.99 ± 1.9
306.5 K	308.5 ± 1.9
309.3 K	310.54 ± 1.9
312.2 K	312.73 ± 1.9
315.2 K	314.63 ± 1.9
318.2 K	316.73 ± 1.9
321.2 K	318.3 ± 1.9
324.1 K	320.78 ± 2
327 K	322.91 ± 2
330 K	325.19 ± 2
332.9 K	327.09 ± 2
335.9 K	329.01 ± 2
338.7 K	330.94 ± 2
341.6 K	333.36 ± 2
344.6 K	335.34 ± 2
347.5 K	337.3 ± 2.1
350.3 K	339.28 ± 2.1
353.2 K	340.83 ± 2.1
356.2 K	342.81 ± 2.1
359 K	344.74 ± 2.1
361.9 K	346.43 ± 2.1
364.8 K	348.25 ± 2.1
367.6 K	350.41 ± 2.1
370.5 K	352.35 ± 2.1
373.5 K	354.08 ± 2.2
376.4 K	355.62 ± 2.2
379.4 K	358.05 ± 2.2
382.4 K	359.77 ± 2.2
385.3 K	361.34 ± 2.2
388.3 K	363.44 ± 2.2
390.7 K	364.99 ± 2.2
393 K	366.42 ± 2.2
395.9 K	368.64 ± 2.2
398.9 K	370.39 ± 2.3
401.9 K	371.91 ± 2.3
